Assay results as given in patent US12312599B2, “Methods, compositions, and kits for producing beige adipocytes and treating metabolic disorders” (MaineHealth, priority 2018, dated 2025).

Columns and labels:
FD-MSCs [1] = experiment: Beige adipogenic precursor markers in FD-MSCs (flow cytometry, immunostaining, qPCR); format: cell-based, human; conditions: SB pretreatment 2 days
Description: (§1) All assays were performed between 7 and 15 passages. For osteocyte differentiation, mature MSCs were grown in 24 well culture plates to 100% confluency in MesenCult-ACF and induced to differentiate in OsteoLife Complete Osteogenesis Medium (Lifeline Cell Technology) for 21 days prior to staining with Lifeline Alizarin Red Stain to visualize calcium deposition. For chondrocyte differentiation. For beige adipogenic precursor generation, cells were grown in 24 well culture plates to 90% confluence and treated with 5 uM SB413542 (Sigma) and 10 nM human IL-4 (Peprotech) for 2 days. For beige adipogenic induction, adipogenic precursors are differentiated for 3 days with adipogenic medium consisting of T3 (2 nM), insulin (170 nM), rosiglitazone (1 μM), SB413542 (5 uM), IBMX (0.5 mM), dexamethasone (5 μM) and indomethacin (125 μM) in EGM-2 medium (Lonza) supplemented with the BulletKit minus FGF2 (modified from^33). Thereafter, cells are maintained in adipogenic medium without IBMX, dexamethasone and indomethacin. The medium was changed every 3 days and adipocytes were fully differentiated by 9-12 days as determined by lipid accumulation and peak expression of UCP1.
Cell Isolation, Expansion and Differentiation of Interscapular Brown Adipose Tissue Preadipocytes • 1. Prior to adipose cell isolation, warm DMEM, FBS and cell wash buffer to room temperature. • 2. In a laminar flow cabinet for cell culture, place 5 g of adipose tissue on a 100×20 mm dish. Suspend tissue in 1 mL of Adipose Tissue Dissociation Kit enzyme digest cocktail and finely mince with a razorblade. • 3. Transfer cell suspension slurry to a 5 mL polystyrene round bottom tube and add an additional 1.5 mL of enzyme digest cocktail to tube. • 4. Incubate tube at 37° C. on a rotating nutator for 30 minutes. During incubation period, briefly vortex sample for 5 s in 10-minute intervals. • 5. Transfer cells to a 15 mL tube and add 5 mL of DMEM. Filter cell suspension through a 100 μm strainer into a new 15 mL tube and centrifuge at 300 g for 5 minutes to form a pellet. • 6. Remove supernatant and leave behind […] of DMEM. […]

FD-MSCs [2] = experiment: PLIN and PPARγ2 immunostaining of differentiated FD-MSC cultures; format: cell-based, human; conditions: SB-treated cultures
Description: as §1
Cell Isolation, Expansion and Differentiation of Interscapular Brown Adipose Tissue Preadipocytes • 1. Prior to adipose cell isolation, warm DMEM, FBS and cell wash buffer to room temperature. • 2. […]

## NC(=O)c1ccc(-c2nc(-c3ccc4c(c3)OCO4)c(-c3ccccn3)[nH]2)cc1 [SB, SB431542]
FD-MSCs [1]
  cell surface expression of PDGFRα and MSCA1: increased
  nuclear accumulation of EBF2: significantly increased
FD-MSCs [2]
  cells in culture that are mature adipocytes (PLIN and PPARγ2 staining): 87%-88%
